Laboratory results from patent publication US20180084779A1, “PLANT DISEASE CONTROL AGENT AND USE THEREOF” (NIHON NOHYAKU CO., LTD., priority 2015, published 2018).

Legend:
[1] = test system: Septoria tritici, KUK-1-21 Strain; assay: Test for wheat leaf blotch, fluoroimide and/or DMI agent sprayed on wheat pots, lesion area index 17 days after inoculation; type: in vivo; settings: wheat, 17 days after inoculation
Experimental: (§1) Test for Wheat Leaf Blotch (Septoria tritici, KUK-1-21 Strain):
(§2) Agrochemical liquids containing a predetermined concentration of fluoroimide and/or a predetermined concentration of each DMI agent were applied to wheat in a predetermined amount with a spray gun. After air drying, a suspension of fungus spore of Septoria tritici adjusted to 1.0×10^7 spores/ml was inoculated by spraying. After that, the wheat pots were kept in a growth chamber under a light condition of at 15° C. 100% RH to encourage the development of the disease. Seventeen days after the inoculation, the lesion area index (0-10) was determined for the evaluation of the control effect.
(§3) Control effect (%)=[(Disease index of no treatment area−Disease index of treatment area)/Disease index of no treatment area]×100 [Formula 1]
(§4) The expected effect (expected value E) by using an active ingredient in combination with each of other active ingredients in the above tests was determined by the following Colby formula (see COLBY, S. R., Weeds 15: 20-22 (1967)).
(§5) E(Expected effect)=(X+Y)−(X×Y/100) [Formula 2]
X=controlling effect of fungicide A alone
Y=controlling effect of fungicide B alone

[2] = test system: Septoria tritici, KUK-1-21 Strain; assay: Test for wheat leaf blotch, fluoroimide and/or SDHI agent sprayed on wheat pots, lesion area index 21 days after inoculation; type: in vivo; settings: wheat, 21 days after inoculation
Experimental: as §3, §4, §5, §1
as §2, with “SDHI” for “DMI”, “Twenty-one” for “Seventeen”, “set and” for “determined for”, “controlling effects and expected values are examined in” for “evaluation of”, “same manner as Example 1.” for “control effect.”

O=C1C(Cl)=C(Cl)C(=O)N1c1ccc(F)cc1 [fluoroimide]
Controlling Effect as single agent ([1]; fluoroimide alone 50 ppm): 25% | Controlling Effect as single agent ([1]; fluoroimide alone 100 ppm): 50% | Controlling Effect as single agent ([2]; fluoroimide alone 50 ppm): 5% | Controlling Effect as single agent ([2]; fluoroimide alone 100 ppm): 25%
